Assay results: PMC8620685, “Effect of Selected Silyl Groups on the Anticancer Activity of 3,4-Dibromo-5-Hydroxy-Furan-2(5H)-One Derivatives” (Pharmaceuticals, 2021)
Entries after “also recorded” stand apart in the source; their conditions may differ. Where two headings read alike, the source gives them in different places.

Tests used:
HCT-116 cells [1] = assay: Clonogenic (colony-formation) assay; assay type: cell-based, human; details: HCT-116, 10 μM for 24 h, then 10 days in drug-free medium
Method: We next sought to investigate the effects of the MBA and compound 3b clonogenic potential of the HCT-116 cell line. The cells were treated with compounds 1 and 3b at 10 μM for 24 h. After harvesting, the cells were re-seeded and cultivated for another 10 days in a drug-free medium.
The HCT116 wt cells (5 × 10^4 cells/well) were plated in 6-well plates (Nunc, ThermoFisher, Waltham, USA) and treated with the tested compounds for 24 and 72 h. Cells were harvested by trypsinization and then re-seeded on the new 6-well plate (Nunc, ThermoFisher, Waltham, MA, USA) with a density of 2 × 10^3 cells/well. After 10 days the cells were washed with cold PBS (Sigma-Aldrich, Taufkirchen, Germany), fixed in ice-cold ethanol (−20 °C) for 3 minutes, air-dried, washed again with cold PBS and stained with 0.01% crystal violet (Sigma-Aldrich, Taufkirchen, Germany) in dH2O (deionized water) for 15 min. Next the plates were washed in dH2O and allowed to dry. Colonies were counted with a microscope (Zeiss, Oberkochen, Germany). Aggregates of 30 cells or more were considered as colonies. Photos were made using the G:Box transilluminator (Syngene, Cambridge, UK).

HCT-116 cells [2] = assay: Cell cycle analysis (PI staining, flow cytometry); assay type: cell-based, human; details: 24 h; for effect on progression of the cell cycle / increase of the sub-G1 population / sub-G1 cells: HCT-116; for sub-G1 cells: untreated cells 0.3%
Method: To better understand the origin of the higher susceptibility of colon cancer cells to MBA and its novel derivatives, compounds 3b and 3c were selected to test their ability to perturb the cell cycle in the HCT-116 cell line. […] However, a significant increase in the percentage of sub-G1 cells after treatment with compounds 3b and 3c was observed. Compound 3b increased the sub-G1 population by 10% and 31%, at a concentration of 10 μM and 20 μM, respectively, while compound 3c exerts such effect only by 10% at the highest tested concentration (Figure 2).
The HCT 116 cells were seeded in 6-well plates (Nunc, ThermoFisher, Waltham, MA, USA) at a density of 5 × 10^4 cells/well. After 24 h the medium was replaced with tested compounds. The cells were incubated for 24 h at 37 °C. Afterward, floating cells were collected and adherent cells were harvested by trypsinization and centrifuged at 600× g. The cells were washed with PBS (phosphate buffered saline) (Sigma-Aldrich, Taufkirchen, Germany) and then fixed in 70% ice-cold ethanol and stored at −20 °C overnight. The next day the cells were centrifuged at 600× g, washed with PBS, treated with 100 μg/mL RNase A solution (EURx, Gdańsk, Poland), 100 μg/ml solution of propidium iodide (PI) (Acros Organics, Geel, Belgium) and incubated for 30 min at room temperature in the dark. After staining, the cells were analyzed using a Becton Dickinson FACS Aria III sorter (BD Company, San Diego, CA, USA). Experiments were repeated at least twice. Data were analyzed using ModFit LTTM Software (Verity Software House, Topsham, ME, USA).

SJSA-1 = assay: MTT assay, SJSA-1; assay type: cell-based; details: Homo sapiens, read-out: IC50 (cytotoxicity), SJSA-1
Method: (§1) The in vitro antitumor activities of the MBA and its derivatives (Table 2) were assayed against a panel of human cancer cell lines (HCT116, HCT-116 ^−/−p53, HT-29, MCF-7, SJSA-1, U2OS, HepG2 and Hep3B) using the MTT assay. As a reference drug we used 5-fluorouracil (5-FU). […] On the basis of in vitro antiproliferative activities, compounds 3b and 3c were selected for further mechanistic studies in the HCT-116 cell line.
(§2) Human cells lines: colon cancer (HCT-116 wt, HT-29), non-small lung carcinoma (A549), and bronchial epithelial cells (BEAS-2B) were obtained from American Type Culture Collection (ATCC, Manassas, VA, USA). Isogenic cell line HCT 116 p53^−/− (deleted both p53 alleles) were a gift from Dr. Bert Vogelstein. Other cell lines, namely MCF-7, SJSA-1, U2OS, HepG2, and Hep3B were received from the collection stored at Centre of Biotechnology of Silesian University of Technology. All cells were grown in DMEM with a high glucose medium (Sigma-Aldrich, Taufkirchen, Germany) supplemented with 10% (v/v) inactivated fetal bovine serum (FBS) (EURx, Gdańsk, Poland) and 1% antibiotics (10,000 μg/mL of streptomycin and 10,000 units/ml of penicillin) (Sigma-Aldrich, Taufkirchen, Germany) at 37 °C in humidified 5% CO2. The maximum concentration of DMSO in the culture media was 0.4%.
(§3) 5 × 10^3 cells per well for the MCF-7 cell line and 2.5 × 10^3 cells per well for the other cell lines were seeded in 96-well plates to adhere for 24 h. Afterward, the cells were treated with tested compounds. After 72 hours of incubation, 50 μL 0.5 mg/ml solution of MTT (3-(4,5-dimethylthiazol-2-yl)-2,5-diphenyl-2H-tetrazolium bromide) were added to each well and the plates were incubated for 3 h at 37 °C. Next, the MTT solution was removed from the plates and formed formazan crystals were dissolved in 2-propanol (Avantor Performance Materials, Gliwice, Poland) containing 0.04 M hydrochloric acid (Avantor Performance Materials, Gliwice, Poland). The absorbance was measured at 570 nm wavelength using a multiwall plate reader (BioTek, Winooski, VT, USA). The experiment was performed at a minimum of 3 independent replicates. Cell viability was set as a percentage versus vehicle control. IC50 was defined as a concentration of a drug that decreased cell viability by 50% relative to the untreated control.

U2OS = assay: MTT assay, U2OS; assay type: cell-based; details: Homo sapiens, 72 h, read-out: IC50 (cytotoxicity), U2OS
Method: as §1, §2, §3

[3] = system: panel of human cancer cell lines (HCT116, HCT-116 −/−p53, HT-29, MCF-7, SJSA-1, U2OS, HepG2 and Hep3B); assay: MTT assay, panel of human cancer cell lines; assay type: cell-based; details: 72 h incubation, read-out: IC50 range across all tested cancer cells
Method: as §1
Human cells lines: colon cancer (HCT-116 wt, HT-29), non-small lung carcinoma (A549), and bronchial epithelial cells (BEAS-2B) were obtained from American Type Culture Collection (ATCC, Manassas, VA, USA). Isogenic cell line HCT 116 p53^−/− (deleted both p53 alleles) were a gift from Dr. Bert Vogelstein. Other cell lines, namely MCF-7, SJSA-1, U2OS, HepG2, and Hep3B were received from the collection stored at Centre of Biotechnology of Silesian University of Technology. […]
5 × 10^3 cells per well for the MCF-7 cell line and 2.5 × 10^3 cells per well for the other cell lines were seeded in 96-well plates to adhere for 24 h. […] The absorbance was measured at 570 nm wavelength using a multiwall plate reader (BioTek, Winooski, VT, USA). […]

HCT 116 wt = assay: MTT assay, HCT 116 wt; assay type: cell-based, human; details: Homo sapiens, HCT-116, 72 h, read-out: IC50 (cytotoxicity), HCT 116 wt, MTT, 72 h incubation
Method: as §1, §2, §3

HepG2 = assay: MTT assay, HepG2; assay type: cell-based; details: Homo sapiens, read-out: IC50 (cytotoxicity), HepG2
Method: as §1, §2
as §3, with “The experiment was performed at a minimum of 3 independent replicates. Cell viability was set as a percentage versus vehicle control. IC50 was defined as a concentration of a drug that decreased cell viability by 50% relative to the untreated control.” left out

| Structure (SMILES) | clonogenic potential (re-growth of colonies) (HCT-116 cells [1]) | effect on progression of the cell cycle (HCT-116 cells [2]; 10 μM) | increase of the sub-G1 population (HCT-116 cells [2]; 10 μM) [%] | effect on progression of the cell cycle (HCT-116 cells [2]; 20 μM) | increase of the sub-G1 population (HCT-116 cells [2]; 20 μM) [%] | IC50 (SJSA-1; SJSA-1, MTT, 72 h incubation) [µM] | IC50 (U2OS) [µM] | IC50 [3] [µM] | IC50 (HCT 116 wt) [µM] | IC50 (HepG2; HepG2, MTT, 72 h incubation) [µM] | sub-G1 cells (HCT-116 cells [2]; 10 μM) [%] | percentage of cells in G1 phase (HCT-116 cells [2]; 20 μM, HCT 116, representative cytogram) [%] | sub-G1 cells (HCT-116 cells [2]; 20 μM) [%] | IC50 (SJSA-1; SJSA-1, 72 h) [µM] | IC50 (HepG2; HepG2, 72 h) [µM] |
| --- | --- | --- | --- | --- | --- | --- | --- | --- | --- | --- | --- | --- | --- | --- | --- |
| CC(C)[Si](OC1OC(=O)C(Br)=C1Br)(C(C)C)C(C)C (centres unmarked) [Compound 3b, 3,4-Dibromo-5-(triisopropylsilyloxy)-furan-2(5H)-one] | completely abolished the re-growth of HCT-116 colonies; also recorded: abolishes the clonogenic potential | neither the MBA nor its silyl derivatives 3b and 3c tested at 10 μM, influenced the progression of the cell cycle | 10 | did not alter the progression of the cell cycle | 31 | 9.9 ± 1.1 | 9.3 ± 0.2 | 7.3 to 21.3 | 15.1 ± 1.2 | 15.6 ± 1.2 |  |  |  |  |  |
| CC(C)(C)[Si](OC1OC(=O)C(Br)=C1Br)(c1ccccc1)c1ccccc1 (centres unmarked) [Compound 3c, 3,4-Dibromo-5-(tert-butyldiphenylsilyloxy)-furan-2(5H)-one] |  | neither the MBA nor its silyl derivatives 3b and 3c tested at 10 μM, influenced the progression of the cell cycle |  | did not alter the progression of the cell cycle | 10 | 14.9 ± 1.5 | 10.2 ± 0.8 | 3.9 to 65.6 | 6.3 ± 0.3 |  |  |  |  |  |  |
| O=C1OC(O)C(Br)=C1Br (centres unmarked) [MBA, 3,4-dibromo-5-hydroxyfuran-2(5H)-one, reference compound] | attenuated the clonogenic potential of HCT-116 to a much less extent | neither the MBA nor its silyl derivatives 3b and 3c tested at 10 μM, influenced the progression of the cell cycle |  |  |  |  | 97.6 ± 1.1 |  | 20.5 ± 5.2 |  | 0.7 | 38.9 | 1.6 | 213 ± 8.8 | 91.7 ± 2.2 |
